Assay results published in ChEMBL document CHEMBL3272106, “Synthesis and narcotic agonist-antagonist evaluation of some 2,6-methano-3-benzazocine-11 propanols. Analogues of the ring C bridged oripavine-7-mehtanols” (1977).
Activity calls are given as the source filed them. The rule behind the calls is not given here.

How the values were obtained:
Rattus norvegicus [1] = test: Narcotic antagonist activity in rat assessed as inhibition of phenazocine-induced response at 80 mg/kg, sc; assay type: functional, organism-based; parameters: dose 80 mg/kg
Mus musculus [2] = test: Narcotic agonist activity in sc dosed albino mouse assessed as protection against acetylcholine-induced writhing administered 20 mins prior to acetylcholine challenge measured for 2 mins; assay type: functional
Rattus norvegicus [3] = test: Narcotic antagonist activity in sc dosed rat assessed as 50% inhibition of phenazocine-induced response; assay type: functional
Mus musculus [4] = test: Narcotic agonist activity in albino mouse assessed as protection against acetylcholine-induced writhing at 25 mg/kg, sc administered 20 mins prior to acetylcholine challenge measured for 2 mins relative to control; assay type: functional; conditions: route subcutaneous
Rattus norvegicus [5] = test: Narcotic antagonist activity in rat assessed as inhibition of phenazocine-induced response at 80 mg/kg, sc relative to nalorphine; assay type: functional; parameters: scale not given: the % may be the effect or the level left; conditions: route subcutaneous
[6] = Mus musculus, sc, read-out: ED50

SMILES | ED50 (Mus musculus [2]; [6]) | AD50 (Rattus norvegicus [3]) | further results
CCC(C)(O)CC[C@@H]1[C@H]2Cc3ccc(O)cc3[C@@]1(C)CCN2C.CS(=O)(=O)O (stereo not given in full) | 3.3 mg/kg |  | inhibition (Rattus norvegicus [1]): inactive
CC(C)(O)CC[C@]1(C)[C@H]2Cc3ccc(O)cc3[C@@]1(C)CCN2CC1CC1.Cl | 4.5 mg/kg | 0.006 mg/kg | 
CC(C)(C)C(C)(O)CC[C@]1(C)[C@H]2Cc3ccc(O)cc3[C@@]1(C)CCN2CC1CC1.CS(=O)(=O)O (stereo in doubt; 4q) |  | 0.022 mg/kg | Activity (Mus musculus [4]): <50%
CC(C)(O)CC[C@@H]1[C@H]2Cc3ccc(O)cc3[C@@]1(C)CCN2CC1CC1 | 16 mg/kg | 0.046 mg/kg | 
CCCCC(C)(O)CC[C@@H]1[C@H]2Cc3ccc(O)cc3[C@@]1(C)CCN2CC1CC1.CS(=O)(=O)O (stereo not given in full) | 6.5 mg/kg | 0.025 mg/kg | 
CCC(C)(O)CC[C@@H]1[C@H]2Cc3ccc(O)cc3[C@@]1(C)CCN2CC1CC1.CS(=O)(=O)O (stereo not given in full) | 7.9 mg/kg | 0.04 mg/kg | 
CN1CC[C@]2(C)c3cc(O)ccc3C[C@@H]1[C@@]2(C)CCC(C)(O)C(C)(C)C.CS(=O)(=O)O (mixture of isomers) | > 25 mg/kg | 0.33 mg/kg | Activity (Mus musculus [4]): <50%; Activity (Rattus norvegicus [5]): 30%
CN1CC[C@]2(C)c3cc(O)ccc3C[C@@H]1[C@@]2(C)CCC(C)(C)O | 3.8 mg/kg | 2.3 mg/kg | 
CC(C)(C)C(C)(O)CC[C@]1(C)[C@H]2Cc3ccc(O)cc3[C@@]1(C)CCN2CC1CC1.CS(=O)(=O)O (single isomer, unassigned; isomer II) |  | 0.71 mg/kg | 
CN1CC[C@]2(C)c3cc(O)ccc3C[C@@H]1[C@H]2CCC(C)(O)C(C)(C)C.CS(=O)(=O)O (stereo in doubt; 4e) |  |  | Activity (Mus musculus [4]): <50%; ED50 (Mus musculus [2]): >75 mg/kg
C[C@H]1[C@@H]2Cc3ccc(O)cc3[C@]1(C)CCN2C [METAZOCINE] | 0.54 mg/kg |  | inhibition (Rattus norvegicus [1]): inactive
CO[C@@]12CC[C@@]3(C[C@@H]1[C@](C)(O)C(C)(C)C)[C@H]1Cc4ccc(O)c5c4[C@@]3(CCN1CC1CC1)[C@H]2O5 [BUPRENORPHINE] |  | 0.11 mg/kg | 
CN1CC[C@]2(C)c3cc(O)ccc3C[C@@H]1[C@@]2(C)CCC(C)(O)C(C)(C)C (stereo not given in full) [listing 1 of 2 here] |  |  | inhibition (Rattus norvegicus [1]): inactive
CN1CC[C@]2(C)c3cc(O)ccc3C[C@@H]1[C@H]2CCC(C)(O)C(C)(C)C (stereo in doubt; 4f) |  |  | inhibition (Rattus norvegicus [1]): inactive
CN1CC[C@]2(C)c3cc(O)ccc3C[C@@H]1[C@H]2CCC(C)(C)O | 8.2 mg/kg |  | inhibition (Rattus norvegicus [1]): inactive
C[C@H]1[C@H]2Cc3ccc(O)cc3[C@]1(C)CCN2CC1CC1 [CYCLAZOCINE] | 0.15 mg/kg | 0.007 mg/kg | 
C=CCN1CC[C@]23c4c5ccc(O)c4O[C@H]2[C@@H](O)C=C[C@H]3[C@H]1C5 [NALORPHINE] |  | 0.1 mg/kg | 
CCCC(C)(O)CC[C@@H]1[C@H]2Cc3ccc(O)cc3[C@@]1(C)CCN2CC1CC1.CS(=O)(=O)O (stereo not given in full) | 7.6 mg/kg | 0.019 mg/kg | 
CCCC(C)(O)CC[C@@H]1[C@H]2Cc3ccc(O)cc3[C@@]1(C)CCN2C.CS(=O)(=O)O (stereo not given in full) | 2.6 mg/kg |  | inhibition (Rattus norvegicus [1]): inactive
CN1CC[C@]2(C)c3cc(O)ccc3C[C@@H]1[C@H]2CCC(C)(O)C(C)(C)C.CS(=O)(=O)O (stereo in doubt; 4f) |  |  | ED50 (Mus musculus [2]): >25 mg/kg
CC(C)(C)C(C)(O)CC[C@@H]1[C@H]2Cc3ccc(O)cc3[C@@]1(C)CCN2CC1CC1.CS(=O)(=O)O (single isomer, unassigned; isomer I) |  | 0.27 mg/kg | Activity (Mus musculus [4]): <50%; ED50 (Mus musculus [2]): >25 mg/kg
CCCCC(C)(O)CC[C@@H]1[C@H]2Cc3ccc(O)cc3[C@@]1(C)CCN2C.CS(=O)(=O)O (stereo not given in full) | 2.5 mg/kg |  | inhibition (Rattus norvegicus [1]): inactive
CN1CC[C@]2(C)c3cc(O)ccc3C[C@@H]1[C@@]2(C)CCC(C)(O)C(C)(C)C (stereo not given in full) [listing 2 of 2 here] | > 25 mg/kg |  | Activity (Mus musculus [4]): <50%
CC(C)(C)C(C)(O)CC[C@@H]1[C@H]2Cc3ccc(O)cc3[C@@]1(C)CCN2CC1CC1.CS(=O)(=O)O (single isomer, unassigned; isomer II) |  | 1.1 mg/kg | ED50 (Mus musculus [2]): 9 mg/kg
